US20220089575A1, “FARNESOID X RECEPTOR AGONISTS AND USES THEREOF” (Metacrine, Inc., priority 2017, published 2022)

Each compound was assayed against T1, hFXR (Homo sapiens, UniProt Q96RI1) (assay: In Vitro FXR Assay (TK): TK-ECRE-luc reporter in transfected CV-1 cells). Settings: 18 hrs, luminescence, maximum efficacy of <25% of the Fexarmine control classified as '+'.
T1 construct: expressed in transfected cells; host or cells: CV-1 cells
T1 sequence (Q96RI1 1-486): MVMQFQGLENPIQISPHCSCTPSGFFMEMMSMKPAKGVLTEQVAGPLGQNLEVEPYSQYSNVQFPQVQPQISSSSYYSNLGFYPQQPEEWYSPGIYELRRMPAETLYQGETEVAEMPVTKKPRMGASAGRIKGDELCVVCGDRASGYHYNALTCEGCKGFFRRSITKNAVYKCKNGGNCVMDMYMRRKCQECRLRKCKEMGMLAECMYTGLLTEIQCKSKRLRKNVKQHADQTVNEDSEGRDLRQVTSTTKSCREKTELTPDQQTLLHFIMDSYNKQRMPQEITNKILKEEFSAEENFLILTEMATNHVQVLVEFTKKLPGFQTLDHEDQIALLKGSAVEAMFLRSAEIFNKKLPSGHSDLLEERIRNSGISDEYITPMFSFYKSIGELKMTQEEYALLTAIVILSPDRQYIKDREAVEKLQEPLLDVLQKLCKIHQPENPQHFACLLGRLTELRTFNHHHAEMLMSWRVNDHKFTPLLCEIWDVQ
T1 sequence (P19793 1-462 partner): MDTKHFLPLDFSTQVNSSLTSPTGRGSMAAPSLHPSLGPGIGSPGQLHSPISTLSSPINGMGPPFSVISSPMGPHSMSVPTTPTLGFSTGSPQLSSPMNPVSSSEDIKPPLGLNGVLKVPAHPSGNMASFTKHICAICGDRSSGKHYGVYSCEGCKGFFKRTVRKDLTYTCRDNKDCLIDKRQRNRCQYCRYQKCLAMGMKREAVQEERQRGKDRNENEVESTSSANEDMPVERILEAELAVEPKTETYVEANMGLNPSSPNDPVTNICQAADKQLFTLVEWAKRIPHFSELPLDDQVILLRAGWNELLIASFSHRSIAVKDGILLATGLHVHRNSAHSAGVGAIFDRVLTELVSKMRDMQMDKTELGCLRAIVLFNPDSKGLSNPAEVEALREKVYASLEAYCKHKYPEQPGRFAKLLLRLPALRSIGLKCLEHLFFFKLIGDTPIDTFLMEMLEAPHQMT
Assay type: cell-based
Description: CV-1 cells were seeded at a density of 2,000,000 cells in a T175 flask with DMEM+10% charcoal double-stripped FBS and incubated at 37° C. in 5% CO2 for 18 h (O/N).
After 18 h of incubation, the medium in the T175 flask was changed with fresh DMEM+10% charcoal super-stripped serum. In a polypropylene tube, 2500 μL OptiMEM (Life Technologies, Cat #31985-062) was combined with expression plasmids for hFXR, hRXR, TK-ECRE-luc and pCMX-YFP. The tube was then briefly vortexed and incubated at room temperature for 5 minutes. Transfection reagent (X-tremeGENE HP from Roche, Cat #06 366 236 001) was added to the OptiMEM/plasmid mixture vortexed and incubated at room temperature for 20 minutes. Following incubation, the transfection reagent/DNA mixture complex was added to cells in the T175 flask and the cells were incubated at 37° C. in 5% CO2 for 18 h (O/N).
Compounds were serially diluted in DMSO and added to transfected CV-1 cells. The cells were then incubated for 18 hrs. The next day cells were lysed and examined for luminescence.
Compound `CNC(=O)O[C@H]1CC[C@H](C(=O)N(CC23CCC(c4ccc(N(C)C)nc4)(CC2)CC3)c2cccc(-c3coc(C4CC4)n3)c2)CC1` [Compound 3, 4-((3-(2-Cyclopropyloxazol-4-yl)phenyl)((4-(6-(dimethylamino)pyridin-3-yl)bicyclo[2.2.2]octan-1-yl)methyl)carbamoyl)cyclohexyl trans-methylcarbamate] has an EC50 of no more than 250 nM. Work on `CCNC(=O)O[C@H]1CC[C@H](C(=O)N(C[C@H]2CC[C@H](c3ccc(OC)c(C)c3)CC2)c2cccc(-c3cnn(C4CC4)c3)c2)CC1` [Compound 3.01, trans-4-((3-(1-Cyclopropyl-1H-pyrazol-4-yl)phenyl)((trans-4-(4-methoxy-3-methylphenyl)cyclohexyl)methyl)carbamoyl)cyclohexyl ethylcarbamate] yielded an EC50 of no more than 250 nM. In the case of `CNC(=O)O[C@H]1CC[C@H](C(=O)N(C[C@H]2CC[C@H](c3ccc(OC)c(C)n3)CC2)c2cccc(-c3cnn(C4CC4)c3)c2)CC1` [Compound 3.02, trans-4-((3-(1-Cyclopropyl-1H-pyrazol-4-yl)phenyl)((trans-4-(5-methoxy-6-methylpyridin-2-yl)cyclohexyl)methyl)carbamoyl)cyclohexyl methylcarbamate], the EC50 is reported as no more than 250 nM. With `CNC(=O)O[C@H]1CC[C@H](C(=O)N(CC23CCC(c4ccc(N(C)C)nc4)(CC2)CC3)c2cccc(-c3cnn(C4CC4)c3)c2)CC1` [Compound 3.03, 4-((3-(1-Cyclopropyl-1H-pyrazol-4-yl)phenyl)((4-(6-(dimethylamino)pyridin-3-yl)bicyclo[2.2.2]octan-1-yl)methyl)carbamoyl)cyclohexyl trans-methylcarbamate] the EC50 was no more than 250 nM. In the case of `CNC(=O)O[C@H]1CC[C@H](C(=O)N(C[C@H]2CC[C@H](c3ccc(OC)c(C)c3)CC2)c2cc(-c3cnn(C4CC4)c3)ccn2)CC1` [Compound 3.04, trans-4-((4-(1-Cyclopropyl-1H-pyrazol-4-yl)pyridin-2-yl)((trans-4-(4-methoxy-3-methylphenyl)cyclohexyl)methyl)carbamoyl)cyclohexyl methylcarbamate], the EC50 is reported as no more than 250 nM. `CNC(=O)O[C@H]1CC[C@H](C(=O)N(C[C@H]2CC[C@H](c3ccc(N(C)C)nc3)CC2)c2cccc(-c3coc(C4CC4)n3)c2)CC1` [Compound 3.05, trans-4-((3-(2-Cyclopropyloxazol-4-yl)phenyl)((trans-4-(6-(dimethylamino)pyridine-3-yl)cyclohexyl)methyl)carbamoyl)cyclohexyl methylcarbamate] gave an EC50 of no more than 250 nM. `COc1ccc([C@H]2CC[C@H](CN(c3cccc(-c4cnn(C5CC5)c4)c3)C(=O)[C@H]3CC[C@H](OC(=O)NCCO)CC3)CC2)cc1C` [Compound 4, trans-4-((3-(1-Cyclopropyl-1H-pyrazol-4-yl)phenyl)((trans-4-(4-methoxy-3-methylphenyl)cyclohexyl)methyl)carbamoyl)cyclohexyl (2-hydroxyethyl)carbamate] was tested, and the EC50 was no more than 250 nM. `COc1ccc([C@H]2CC[C@H](CN(c3cccc(-c4cnc(C5CC5)s4)c3)C(=O)[C@H]3CC[C@H](OC(=O)NCCO)CC3)CC2)cc1C` [Compound 4.01, trans-4-((3-(2-Cyclopropylthiazol-5-yl)phenyl)((trans-4-(4-methoxy-3-methylphenyl)cyclohexyl)methyl)carbamoyl)cyclohexyl (2-hydroxyethyl)carbamate] was tested, and the EC50 was no more than 250 nM. In the case of `COc1ccc(C23CCC(CN(c4cccc(-c5cnc(C6CC6)s5)c4)C(=O)[C@H]4CC[C@H](OC(=O)NCCO)CC4)(CC2)CC3)cc1C` [Compound 4.02, 4-((3-(2-Cyclopropylthiazol-5-yl)phenyl)((4-(4-methoxy-3-methylphenyl)bicyclo[2.2.2]octan-1-yl)methyl)carbamoyl)cyclohexyl (2-hydroxyethyl)trans-carbamate], the EC50 is reported as no more than 250 nM. Work on `CN(C)c1ccc(C23CCC(CN(c4cccc(-c5cnc(C6CC6)s5)c4)C(=O)[C@H]4CC[C@H](OC(=O)NCCO)CC4)(CC2)CC3)cn1` [Compound 4.03, 4-((3-(2-Cyclopropylthiazol-5-yl)phenyl)((4-(6-(dimethylamino)pyridin-3-yl)bicyclo[2.2.2]octan-1-yl)methyl)carbamoyl)cyclohexyl (2-hydroxyethyl)trans-carbamate] yielded an EC50 of no more than 250 nM. For `COc1ccc(C23CCC(CN(c4cccc(-c5cnn(C6CC6)c5)c4)C(=O)[C@H]4CC[C@H](OC(=O)NCCO)CC4)(CC2)CC3)cc1C` [Compound 4.04, 4-((3-(1-Cyclopropyl-1H-pyrazol-4-yl)phenyl)((4-(4-methoxy-3-methylphenyl)bicyclo[2.2.2]octan-1-yl)methyl)carbamoyl)cyclohexyl (2-hydroxyethyl)trans-carbamate], the EC50 was no more than 250 nM. With `COc1ccc([C@H]2CC[C@H](CN(c3cccc(-c4cnn(C5CC5)c4)c3)C(=O)[C@H]3CC[C@H](OC(=O)NC(C)C)CC3)CC2)cc1C` [Compound 4.05, trans-4-((3-(1-Cyclopropyl-1H-pyrazol-4-yl)phenyl)((trans-4-(4-methoxy-3-methylphenyl)cyclohexyl)methyl)carbamoyl)cyclohexyl isopropylcarbamate] the EC50 was no more than 250 nM. `COc1ccc([C@H]2CC[C@H](CN(c3cccc(-c4cnn(C5CC5)c4)c3)C(=O)[C@H]3CC[C@H](OC(=O)N4CC(OC)C4)CC3)CC2)cc1C` [Compound 4.06, trans-4-((3-(1-Cyclopropyl-1H-pyrazol-4-yl)phenyl)((trans-4-(4-methoxy-3-methylphenyl)cyclohexyl)methyl)carbamoyl)cyclohexyl 3-methoxyazetidine-1-carboxylate] showed an EC50 of no more than 250 nM. For `COc1ccc([C@H]2CC[C@H](CN(c3cccc(-c4cnn(C5CC5)c4)c3)C(=O)[C@H]3CC[C@H](OC(=O)N4CCOCC4)CC3)CC2)cc1C` [Compound 4.07, trans-4-((3-(1-Cyclopropyl-1H-pyrazol-4-yl)phenyl)((trans-4-(4-methoxy-3-methylphenyl)cyclohexyl)methyl)carbamoyl)cyclohexyl morpholine-4-carboxylate], the EC50 was no more than 250 nM. `COc1ccc([C@H]2CC[C@H](CN(c3cccc(-c4cnn(C5CC5)c4)c3)C(=O)[C@H]3CC[C@H](OC(=O)NC4CC4)CC3)CC2)cc1C` [Compound 4.08, trans-4-((3-(1-Cyclopropyl-1H-pyrazol-4-yl)phenyl)((trans-4-(4-methoxy-3-methylphenyl)cyclohexyl)methyl)carbamoyl)cyclohexyl cyclopropylcarbamate] showed an EC50 of no more than 250 nM. Compound `COc1ccc([C@H]2CC[C@H](CN(c3cccc(-c4cnn(C5CC5)c4)c3)C(=O)[C@H]3CC[C@H](OC(=O)NCCN(C)C)CC3)CC2)cc1C` [Compound 4.09, trans-4-((3-(1-Cyclopropyl-1H-pyrazol-4-yl)phenyl)((trans-4-(4-methoxy-3-methylphenyl)cyclohexyl)methyl)carbamoyl)cyclohexyl (2-(dimethylamino)ethyl)carbamate] has an EC50 of no more than 250 nM. With `COc1ccc([C@H]2CC[C@H](CN(c3cccc(-c4cnn(C5CC5)c4)c3)C(=O)[C@H]3CC[C@H](OC(=O)NCCCO)CC3)CC2)cc1C` [Compound 4.10, trans-4-((3-(1-Cyclopropyl-1H-pyrazol-4-yl)phenyl)((trans-4-(4-methoxy-3-methylphenyl)cyclohexyl)methyl)carbamoyl)cyclohexyl (3-hydroxypropyl)carbamate] the EC50 was no more than 250 nM.
